Results from patent EP2608671B1, “COMPOUNDS FOR TREATMENT OF CANCER” (Gtx, Inc., priority 2010, dated 2012).
Read-outs that look alike come from different tables or passages of the source.

Assays:
[1] = tested on: A375; experiment: SRB cell growth inhibition (cytotoxicity) assay; format: cell-based, human
[2] = tested on: PPC-1; experiment: cells; conditions: Homo sapiens
[3] = tested on: PC-3; experiment: cells; conditions: Homo sapiens
Excerpt: (§1) The only compounds which belong to the invention are the ones falling under the scope of formula (XI).
Cells were stained with SRB solution.
Cells. […] Cells between the third and fifth passages were used for experiments.
Cell growth inhibition studies. […] Cells were stained with sulphorhodamine B (SRB) solution.

[4] = tested on: LNCaP; experiment: cells; conditions: Homo sapiens
[5] = tested on: WM-164; experiment: SRB cell growth inhibition (cytotoxicity) assay; format: cell-based, human; conditions: Homo sapiens
[6] = tested on: B16-F1; experiment: SRB cell growth inhibition (cytotoxicity) assay; format: cell-based, mouse
Excerpt: as §1

[7] = tested on: DU 145; experiment: cells; conditions: Homo sapiens
[8] = Homo sapiens, A-375, 96 h; read-out: IC50 ± SEM (nM), A375
[9] = PPC-1, 96 h, read-out: IC50 ± SEM (nM), PPC-1
[10] = PC-3, 96 h, read-out: IC50 ± SEM (nM), PC-3
[11] = 96 h, read-out: IC50 ± SEM (nM), LNCaP
[12] = WM164, SRB assay, 96 h, Table 2, read-out: IC50 ± SEM (nM), WM-164
[13] = Mus musculus, B16-F1; read-out: IC50 ± SEM (nM), B16-F1
[14] = DU-145, 96 h, read-out: IC50 ± SEM (nM), DU 145
[15] = Homo sapiens, A-375; A375 melanoma cells, 48 h, SRB; read-out: IC50 ± SEM (nM) A375
[16] = WM164 melanoma cells, 48 h, SRB, read-out: IC50 ± SEM (nM) WM164
[17] = Mus musculus; B16-F1 melanoma cells, 48 h, SRB; read-out: IC50 ± SEM (nM) B16-F1
[18] = DU-145, 96 h, read-out: IC50 ± SEM (nM) Du 145
[19] = Homo sapiens, A-375; SRB, 48 h; Table 11; read-out: IC50 (nM), A375
[20] = PPC-1, 96 h, read-out: IC50 (nM), PPC-1
[21] = PC-3, 96 h, read-out: IC50 (nM), PC-3
[22] = 96 h, read-out: IC50 (nM), LNCaP
[23] = WM164, SRB, 48 h, Tables 11, 12, read-out: IC50 (nM), WM164
[24] = Mus musculus, B16-F1; SRB, 48 h; Table 11; read-out: IC50 (nM), B16-F1
[25] = DU-145, 96 h, read-out: IC50 (nM), Du 145
[26] = Homo sapiens, A-375, 96 h, read-out: IC50 ± SEM (nM), A375
[27] = WM164, 96 h, read-out: IC50 ± SEM (nM), WM-164
[28] = Mus musculus, B16-F1, read-out: IC50 ± SEM (nM), B16-F1

| SMILES | IC50 [1, 8] [nM] | IC50 [2, 9] [nM] | IC50 [3, 10] [nM] | IC50 [4, 11] [nM] | IC50 [5, 12] [nM] | IC50 [6, 13] [nM] | IC50 [7, 14] [nM] | also measured |
| --- | --- | --- | --- | --- | --- | --- | --- | --- |
| COc1cc(Sc2cccc(-c3ccccc3)c2)cc(OC)c1OC [4a, Biphenyl-3-yl(3,4,5-trimethoxyphenyl)sulfane] | 11600 ± 400 | 2300 ± 100 | > 10000 | 300 ± 200 | 2000 | 2400 ± 900 | > 10000 | – |
| COc1cc(S(=O)(=O)c2cccc(-c3ccccc3)c2)cc(OC)c1OC [4b, 3-(3,4,5-Trimethoxyphenylsulfonyl)biphenyl] | > 10000 | > 10000 | > 10000 | > 10000 | > 10000 | > 10000 | > 10000 | – |
| COc1cc(C(=O)c2c[nH]c(-c3ccc(C)cc3)n2)cc(OC)c1O [12dc, (4-hydroxy-3,5-dimethoxyphenyl)(2-(p-tolyl)-1H-imidazol-4-yl)methanone] | – | 110 | 127 | 134 | – | – | – | IC50 [1, 15]: 105 nM; IC50 [5, 16]: 123 nM; IC50 [6, 17]: 387 nM; IC50 [7, 18]: 174 nM |
| Cc1ccc(C(=O)c2c[nH]c(-c3ccccc3)n2)cc1 [12ah, (2-phenyl-1H-imidazol-4-yl)(p-tolyl)methanone] | – | – | – | – | – | – | – | IC50 [1, 19]: > 10000 nM; IC50 [2, 20]: > 10000 nM; IC50 [3, 21]: > 10000 nM; IC50 [4, 22]: > 10000 nM; IC50 [5, 23]: > 10000 nM; IC50 [6, 24]: > 10000 nM; IC50 [7, 25]: > 10000 nM |
| COc1cc(-c2csc(-c3ccccc3)n2)cc(OC)c1OC [2i, 2-Phenyl-4-(3,4,5-trimethoxyphenyl)thiazole] | > 10000 | > 10000 | > 10000 | > 10000 | > 10000 | > 10000 | > 10000 | – |
| COc1cc(/C(=C\C#N)c2csc(-c3ccccc3)n2)cc(OC)c1OC [2c-cis, (E)-3-(2-phenylthiazol-4-yl)-3-(3,4,5-trimethoxyphenyl)acrylonitrile] | – | ~10000 | ~10000 | 1990 | – | – | ~10000 | IC50 [1, 26]: 1200 ± 400 nM; IC50 [5, 27]: 1000 ± 200 nM; IC50 [6, 28]: 1200 ± 300 nM |
| COc1cc(-c2nc(C(=O)c3ccc(F)cc3)cn2S(=O)(=O)c2ccccc2)cc(OC)c1OC [11eb, (4-fluorophenyl)(1-(phenylsulfonyl)-2-(3,4,5-trimethoxyphenyl)-1H-imidazol-4-yl)methanone] | – | > 10000 | > 10000 | > 10000 | – | – | – | IC50 [1, 15]: 3840 nM; IC50 [5, 16]: > 10000 nM; IC50 [6, 17]: > 10000 nM; IC50 [7, 18]: > 10000 nM |
| COc1cc(C(=O)c2cc(-c3ccccc3)n[nH]2)cc(OC)c1OC [1k, (3-Phenyl-1H-pyrazol-5-yl)(3,4,5-trimethoxyphenyl)methanone] | – | – | – | – | – | – | – | IC50 ([1]; Homo sapiens, A-375; Table 6; read-out: IC50 ±SEM (nM), A375): 100 nM; IC50 ([2]; PPC-1, read-out: IC50 ±SEM (nM), PPC-1): 84 nM; IC50 ([3]; PC-3, read-out: IC50 ±SEM (nM), PC-3): 101 nM; IC50 ([4]; read-out: IC50 ±SEM (nM), LNCaP): 101 nM; IC50 ([5]; WM164, Table 6, read-out: IC50 ±SEM (nM), WM164): 220 nM; IC50 ([6]; Mus musculus, B16-F1; Table 6; read-out: IC50 ±SEM (nM), B16-F1): 245 nM; IC50 ([7]; DU-145, read-out: IC50 ±SEM (nM), DU 145): 140 nM |
| Cc1ccc(C(=O)c2cn(S(=O)(=O)c3ccccc3)c(-c3ccccc3)n2)cc1 [11ah, (2-phenyl-1-(phenylsulfonyl)-1H-imidazol-4-yl)(p-tolyl)methanone] | – | > 10000 | > 10000 | > 10000 | – | – | – | IC50 [1, 15]: > 10000 nM; IC50 [5, 16]: > 10000 nM; IC50 [6, 17]: > 10000 nM; IC50 [7, 18]: > 10000 nM |
| COc1cc([S+]([O-])c2cccc(-c3ccccc3)c2)cc(OC)c1OC (centres unmarked) [4c, 3-(3,4,5-Trimethoxyphenylsulfinyl)biphenyl] | > 10000 | > 10000 | > 10000 | > 10000 | > 10000 | > 10000 | > 10000 | – |
| COc1cc(C(=O)c2cn(S(=O)(=O)c3ccccc3)c(-c3ccc(N(C)C)cc3)n2)cc(OC)c1OC [11ga, (2-(4-(dimethylamino)phenyl)-1-(phenylsulfonyl)-1H-imidazol-4-yl)(3,4,5-trimethoxyphenyl)methanone] | – | 72 ± 0.4 | 93 ± 6 | 62 ± 2 | – | – | – | IC50 [1, 15]: 162 ± 13 nM; IC50 [5, 16]: 308 ± 32 nM; IC50 [6, 17]: 1200 ± 90 nM; IC50 [7, 18]: 99 ± 2 nM |
| COc1cc(C(=C(C)C)c2csc(-c3ccccc3)n2)cc(OC)c1OC [2a, 4-(2-Methyl-1-(3,4,5-trimethoxyphenyl)prop-1-enyl)-2-phenylthiazole] | 1900 ± 800 | 2040 | 2470 | 1390 | 3700 ± 1200 | 3800 ± 1300 | 2650 | – |
| CC(C)C[C@H](NC(=O)[C@H](Cc1ccccc1)NC(=O)c1cnccn1)B(O)O [Bortezomib, reference compound] | – | – | – | – | – | – | – | IC50 ([1]; Homo sapiens, A-375, read-out: IC50 ± SEM (nM) (n=3), A375; Table 14A): 8 ± 1 nM; IC50 ([5]; WM164, read-out: IC50 ± SEM (nM) (n=3), WM-164, Table 14A): 8 ± 1 nM; IC50 ([6]; Mus musculus, B16-F1, read-out: IC50 ± SEM (nM) (n=3), B16-F1; Table 14A): 24 ± 2 nM |
| COc1cc(NS(=O)(=O)c2cccc(-c3ccccc3)c2)cc(OC)c1OC [4d, N-(3,4,5-Trimethoxyphenyl)biphenyl-3-sulfonamide] | > 10000 | > 10000 | > 10000 | > 10000 | > 10000 | > 10000 | > 10000 | – |
| Cc1cccc(C(=O)c2c[nH]c(-c3ccccc3)n2)c1 [12ai, (2-phenyl-1H-imidazol-4-yl)(m-tolyl)methanone] | – | – | – | – | – | – | – | IC50 [1, 19]: > 10000 nM; IC50 [2, 20]: > 10000 nM; IC50 [3, 21]: > 10000 nM; IC50 [4, 22]: > 10000 nM; IC50 [5, 23]: > 10000 nM; IC50 [6, 24]: > 10000 nM; IC50 [7, 25]: > 10000 nM |
| CO/N=C(/c1cc(OC)c(OC)c(OC)c1)c1csc(-c2ccccc2)n1 [2f-cis, (Z)-(2-Phenylthiazol-4-yl)(3,4,5-trimethoxyphenyl)methanone O-methyl oxime] | 2900 ± 1200 | > 10000 | > 10000 | > 10000 | 3400 ± 1800 | 3800 ± 1600 | > 10000 | – |
| O=C(c1ccc(F)cc1)c1c[nH]c(-c2ccccc2)n1 [12af, (4-fluorophenyl)(2-phenyl-1H-imidazol-4-yl)methanone] | – | – | – | – | – | – | – | IC50 [1, 19]: 580 nM; IC50 [2, 20]: 575 nM; IC50 [3, 21]: 2200 nM; IC50 [4, 22]: 613 nM; IC50 [5, 23]: 630 nM; IC50 [6, 24]: 930 nM; IC50 [7, 25]: 846 nM |
| COc1cc(/C(=C/C#N)c2csc(-c3ccccc3)n2)cc(OC)c1OC [2c-trans, (Z)-3-(2-phenylthiazol-4-yl)-3-(3,4,5-trimethoxyphenyl)acrylonitrile] | – | 900 | 890 | 580 | – | – | 2280 | IC50 [1, 26]: 4600 ± 1500 nM; IC50 [5, 27]: 4900 ± 1300 nM; IC50 [6, 28]: 5400 ± 2100 nM |
| COc1cc(C(=O)c2coc(-c3ccccc3)n2)cc(OC)c1OC [36a, (2-Phenyl-oxazol-4-yl)-(3,4,5-trimethoxy-phenyl)-methanone] | 300 ± 100 | 324 | 294 | 310 | – | 600 ± 200 | 292 | – |
| COc1cc(C(=O)c2csc(-c3ccc(CNC(=O)OC(C)(C)C)cc3)n2)cc(OC)c1OC [68a, tert-Butyl 4-(4-(3,4,5-trimethoxybenzoyl)thiazol-2-yl)benzylcarbamate] | 7900 ± 500 | 2700 | 3100 | 2600 | – | 2900 ± 400 | 4400 | – |
| O=C(c1cc(O)c(O)c(O)c1)c1c[nH]c(-c2ccc(O)c(O)c2)n1 [13ha, (2-(3,4-dihydroxyphenyl)-1H-imidazol-4-yl)(3,4,5-trihydroxyphenyl)methanone] | – | – | – | – | – | – | – | IC50 [1, 15]: > 10000 nM; IC50 [5, 16]: > 10000 nM; IC50 [6, 17]: > 10000 nM |
| COc1cc(/C(=N/N)c2csc(-c3ccccc3)n2)cc(OC)c1OC [2d-cis, (Z)-4-(hydrazono(3,4,5-trimethoxyphenyl)methyl)-2-phenylthiazole] | 900 ± 300 | 872 | 1120 | 1800 | – | 2000 ± 800 | 1210 | – |
| COc1cc(C(=O)c2cccc(-c3ccccc3)c2)cc(OC)c1OC [1a, Biphenyl-3-yl(3,4,5-trimethoxyphenyl)methanone] | 87 ± 15 | 85 | 81 | 234 | – | 500 ± 200 | 178 | – |
